Source: patent US12098109B2, “Reaction methods for producing nitrogenous phosphoryl compounds that are in situ fluid compositions” (SOILGENIC TECHNOLOGIES, LLC, priority 2021, dated 2024)
Like-named read-outs stand apart in the source and are kept apart here.

Experiments:
[1] = Stability by top clear layer after 3 days @ 50 C; assay type: physicochemical
Method: (§1) Stability was determined by the measurement of the top clear layer after 3 days @ 50° C. Flowability was determined by measuring the elapsed time that it took for 4 grams of the 5 gram sample to flow out of a container with a 0.9 cm opening @ 25° C.

[2] = Flowability by elapsed flow-out time; assay type: physicochemical
Method: as §1

[3] = 1% dispersibility in water, 1 gram of sample in 99 grams of water
[4] = tested on: West Texas Soil (Estacado Clay Loam); experiment: Ammonia generation from treated urea on soil, headspace NH3 by Draeger am-5000 meter; conditions: for Measuring Ammonia Generation, Days Ran 3: day 3; for Measuring Ammonia Generation, Days Ran 4: day 4; for Measuring Ammonia Generation, Days Ran 5: day 5; for Measuring Ammonia Generation, Days Ran 6: day 6; for Measuring Ammonia Generation, Days Ran 7: day 7; for Measuring Ammonia Generation, Days Ran 10: day 10; for Measuring Ammonia Generation, Days Ran 11: day 11; for Measuring Ammonia Generation, Days Ran 13: day 13
[5] = tested on: West Texas Soil (Estacado Clay Loam); experiment: Ammonia generation, N Yield vs N Yield + NH4Cl solutions with urea dropped onto soil sample; conditions: in the presence of NBPT
[6] = tested on: West Texas Soil (Estacado Clay Loam); experiment: NH4Cl vs DCD as nitrification inhibitor, ammonia generation from treated urea; conditions: compared to DCD
[7] = Sedimentation of inorganic chloride particles of Example 14 after adding organic liquids; assay type: physicochemical
[8] = 4% organic liquid added to Example 56, top clear layer after 3 days @ 50 C
[9] = 4% organic liquid added to Example 56, time for 4 grams of 5 gram sample to flow out of 0.9 cm opening @ 25 C
[10] = 4% organic liquid added to Example 56
[11] = organic liquid added to Example 56 at a 4% level
[12] = One Month Storage of treated urea
[13] = Two Month Storage of treated urea

Question: Which “Clear layer (cm)” value [1, 8] does the source give for `CC1(C)OCC(CO)O1` (stereo not drawn) [2,2-dimethyl-l,3-dioxolane-4-methanol, 2,2-dimethyl-1,3-dioxolane-4-methanol] here?
Answer: 0.3 cm

Question: What about the “seconds (flowability)” value [2, 9] of the same compound?
Answer: 3.85 s

Question: And the “1% dispersibility in water rating” value [3, 10]?
Answer: 6

Question: What about the “effect on Example 56's dispersibility in water” value [3, 11] of the same compound?
Answer: improve Example 56's dispersibility in water significantly

Question: Which results are given for `OCC(O)CO` [Glycerin]?
Answer: Clear layer (cm) [1, 8]: 0.4 cm; seconds (flowability) [2, 9]: 2.35 s; 1% dispersibility in water rating [3, 10]: 6; effect on Example 56's dispersibility in water [3, 11]: improve Example 56's dispersibility in water significantly

Question: For `CN1CCCC1=O` [N-methyl pyrrolidone], which “Clear layer (cm)” value [1, 8] is on record?
Answer: 0.45 cm

Question: What about the “seconds (flowability)” value [2, 9] of the same compound?
Answer: 2.49 s

Question: What about the “1% dispersibility in water rating” value [3, 10] of the same compound?
Answer: 3

Question: With `CCCCNP(N)(N)=S` [NBPT, N-(n-butyl)-thiophosphoric triamide] as the compound, how does the “Measuring Ammonia Generation, Days Ran 3” value ([4]; Initial) read?
Answer: 9 ppm

Question: And the “Measuring Ammonia Generation, Days Ran 4” value ([4]; Initial)?
Answer: 10 ppm

Question: What about the “Measuring Ammonia Generation, Days Ran 5” value ([4]; Initial) of the same compound?
Answer: 4 ppm

Question: What about the “Measuring Ammonia Generation, Days Ran 6” value ([4]; Initial) of the same compound?
Answer: 4 ppm

Question: What about the “Measuring Ammonia Generation, Days Ran 7” value ([4]; Initial) of the same compound?
Answer: 14 ppm

Question: What about the “Measuring Ammonia Generation, Days Ran 10” value ([4]; Initial) of the same compound?
Answer: 97 ppm

Question: What about the “Measuring Ammonia Generation, Days Ran 11” value ([4]; Initial) of the same compound?
Answer: 88 ppm

Question: What about the “Measuring Ammonia Generation, Total” value ([4]; Initial, total of days 3-11) of the same compound?
Answer: 226 ppm

Question: What about the “Measuring Ammonia Generation, Days Ran 3” value [4, 12] of the same compound?
Answer: 111 ppm

Question: And the “Measuring Ammonia Generation, Days Ran 4” value [4, 12]?
Answer: 51 ppm

Question: What about the “Measuring Ammonia Generation, Days Ran 5” value [4, 12] of the same compound?
Answer: 57 ppm

Question: And the “Measuring Ammonia Generation, Days Ran 6” value [4, 12]?
Answer: 98 ppm

Question: What about the “Measuring Ammonia Generation, Days Ran 7” value [4, 12] of the same compound?
Answer: 236 ppm

Question: And the “Measuring Ammonia Generation, Days Ran 10” value [4, 12]?
Answer: 349 ppm

Question: What about the “Measuring Ammonia Generation, Days Ran 11” value [4, 12] of the same compound?
Answer: 251 ppm

Question: And the “Measuring Ammonia Generation, Days Ran 12” value ([4]; One Month Storage of treated urea, day 12)?
Answer: 301 ppm

Question: And the “Measuring Ammonia Generation, Days Ran 13” value [4, 12]?
Answer: 153 ppm

Question: What about the “Measuring Ammonia Generation, Total” value ([4]; One Month Storage of treated urea, total of days 3-13) of the same compound?
Answer: 1607 ppm

Question: What about the “Measuring Ammonia Generation, Days Ran 1” value ([4]; Two Month Storage of treated urea, day 1) of the same compound?
Answer: 103 ppm

Question: What about the “Measuring Ammonia Generation, Days Ran 5” value [4, 13] of the same compound?
Answer: 99 ppm

Question: And the “Measuring Ammonia Generation, Days Ran 6” value [4, 13]?
Answer: 32 ppm

Question: And the “Measuring Ammonia Generation, Days Ran 7” value [4, 13]?
Answer: 129 ppm

Question: What about the “Measuring Ammonia Generation, Days Ran 8” value ([4]; Two Month Storage of treated urea, day 8) of the same compound?
Answer: 159 ppm

Question: And the “Measuring Ammonia Generation, Days Ran 9” value ([4]; Two Month Storage of treated urea, day 9)?
Answer: 130 ppm

Question: And the “Measuring Ammonia Generation, Days Ran 13” value [4, 13]?
Answer: 152 ppm

Question: And the “Measuring Ammonia Generation, Days Ran 14” value ([4]; Two Month Storage of treated urea, day 14)?
Answer: 66 ppm

Question: And the “Measuring Ammonia Generation, Days Ran 15” value ([4]; Two Month Storage of treated urea, day 15)?
Answer: 49 ppm

Question: And the “Measuring Ammonia Generation, Days Ran 16” value ([4]; Two Month Storage of treated urea, day 16)?
Answer: 68 ppm

Question: And the “Measuring Ammonia Generation, Total” value ([4]; Two Month Storage of treated urea, total)?
Answer: 884 ppm

Question: With `Cl.N` [NH4Cl, ammonium chloride] as the compound, how does the “behaviour in ammonia generation test” value [5] read?
Answer: performing as a nitrification inhibitor

Question: And the “performance as a nitrification inhibitor” value [6]?
Answer: equivalent to DCD

Question: What does the source list for `C[S+](C)[O-]` [dimethyl sulfoxide]?
Answer: Clear layer in inches of a 4 inch sample ([7]; 8 grams added/25 grams of Example 14, within 24 hours of standing): <1 inches; Clear layer in inches of a 4 inch sample ([7]; 25 grams added/25 grams of Example 14, within 24 hours of standing): 1 inches; Clear layer (cm) [1, 8]: 0 cm; seconds (flowability) [2, 9]: 20.3 s; 1% dispersibility in water rating [3, 10]: 4

Question: With `CC[N+](C)(CC)CC.[Cl-]` [triethyl methyl ammonium chloride] as the compound, how does the “Clear layer in inches of a 4 inch sample” value ([7]; 2 grams added/25 grams of Example 14, within 24 hours of standing) read?
Answer: 0 inches

Question: Which “Clear layer in inches of a 4 inch sample” value [7] does the source give for `CCOP(=O)(OCC)OCC` [triethyl phosphate] here?
Answer: 0 inches

Question: What about the “Clear layer (cm)” value [1] of the same compound?
Answer: 0.4 cm

Question: And the “seconds (flowability)” value [2]?
Answer: 4.03 s

Question: And the “1% dispersibility in water rating” value [3]?
Answer: 6

Question: And the “effect on Example 56's dispersibility in water” value [3]?
Answer: improve Example 56's dispersibility in water significantly

Question: Which “Clear layer in inches of a 4 inch sample” value [7] does the source give for butyl carbonate here?
Answer: 0 inches
